The values that follow come from patent publication US6709849B2, “Dietary supplements for regulating male hormone” (priority 2002, dated 2004).

Assay [1] has as its system castrated male Wistar rats. Briefly: Growth of prostate, seminal vesicle and glandulae preputiales in castrated Wistar rats (wet weight). It is filed as in vivo, rat. The settings on record: daily for 14 days, sacrificed 24 hours after last administration, yeast 3 ml daily intragastric, testosterone propionate 25 mg/kg daily i.m. The procedure: (§1) The activated yeast compositions used in the following examples were prepared as described above, using Saccharomyces cerevisiae Hansen AS2.504, cultured in the presence of an alternating electric field having the electric field frequency and field strength exemplified in the parentheses following the recommended ranges listed in Section IV, supra. Control (i.e., untreated) yeast compositions were those prepared in the same manner as described in Section VI, supra, except that the yeast cells were cultured in the absence of EMFs. Unless otherwise indicated, the yeast compositions and the corresponding controls were administered to the animals by intragastric feeding.
To test the ability of the EMF-treated AS2.504 cells to regulate male hormone, twenty-four healthy male Wistar rats (about 50 g body weight, 20 days old) were selected. Under ether anesthesia, both testes of each rat were removed under sterile conditions. The castrated rats were then randomly divided into four equal groups. The activated yeast composition was administered to Group A rats at a dose of 3 ml daily continuously for 14 consecutive days. […]
Each rat was sacrificed 24 hours after the last administration of the composition of interest. […] The wet weight of the prostate and seminal vesicle was recorded (Table 2). […] The wet weight of the removed glandulae preputiales was also recorded (Table 2).

In assay [2] the test system is castrated male NIH-grade mice. Briefly: Growth of seminal vesicle and glandulae preputiales in castrated mice (weight). Type of assay: in vivo, mouse. The conditions noted are these: 7 days, yeast 1.5 ml/dose twice daily intragastric, testosterone propionate 20 mg/kg i.m. every other day. The procedure: as §1
Forty male NIH-grade castrated mice (about 25-30 g each) were randomly divided into four equal groups. Three days after castration, the activated yeast composition was administered to each of the Group A mice twice daily at 1.5 ml/dose for seven consecutive days. The control yeast composition was administered to each of the Group B mice at the same daily dosage for seven consecutive days. Testosterone propionate was injected intramuscularly to each of the Group C mice in the buttocks at 20 mg/kg every other day, i.e., on days 1, 3, 5, and 7, for a total of 7 days. Saline was orally administered to each of the Group D […] twice daily at 1.5 ml/dose for seven consecutive days. […]

With `CCC(=O)O[C@H]1CC[C@H]2[C@@H]3CCC4=CC(=O)CC[C@]4(C)[C@H]3CC[C@]12C` [testosterone propionate, Testosterone propionate], in assay [1], the “Glandulae Preputiales (wet weight)” value was 98.6 ± 15.8; the “Prostate and Seminal Vesicle (wet weight)” value worked out at 91.5 ± 12.8. In assay [2], the “Glandulae Preputiales (mg/100 g body weight)” value is 323.7 ± 50.6 mg/100 g body weight and the “Seminal Vesicle (mg/100 g body weight)” value worked out at 268.2 ± 56.2 mg/100 g body weight.
